Reference: patent publication US9340590B2 (priority 2011, dated 2016)
Where two headings read alike, the source gives them in different places. Positions of bridges follow the written chain, without caps; N, C: chain ends. Residues, ends and D or L forms follow the SMILES beside them.

Key:
hNav1.7 = hNav1.7 (Homo sapiens, UniProt Q15858); assay: cell-based; format: cell-based; settings: read-out: IWQ Use Nav1.7
hNav1.3 = hNav1.3 (Homo sapiens, UniProt Q9NY46); assay: cell-based; settings: IonWorks Quattro, use-dependent block, hNav1.3; read-out: IWQ Use Nav1.3
[1] = IonWorks Quattro, clamped to −110 mV, depolarized to −10 mV, 5 min after compound, n=2

Sequence of hNav1.7 (Q15858 whole entry, looked up): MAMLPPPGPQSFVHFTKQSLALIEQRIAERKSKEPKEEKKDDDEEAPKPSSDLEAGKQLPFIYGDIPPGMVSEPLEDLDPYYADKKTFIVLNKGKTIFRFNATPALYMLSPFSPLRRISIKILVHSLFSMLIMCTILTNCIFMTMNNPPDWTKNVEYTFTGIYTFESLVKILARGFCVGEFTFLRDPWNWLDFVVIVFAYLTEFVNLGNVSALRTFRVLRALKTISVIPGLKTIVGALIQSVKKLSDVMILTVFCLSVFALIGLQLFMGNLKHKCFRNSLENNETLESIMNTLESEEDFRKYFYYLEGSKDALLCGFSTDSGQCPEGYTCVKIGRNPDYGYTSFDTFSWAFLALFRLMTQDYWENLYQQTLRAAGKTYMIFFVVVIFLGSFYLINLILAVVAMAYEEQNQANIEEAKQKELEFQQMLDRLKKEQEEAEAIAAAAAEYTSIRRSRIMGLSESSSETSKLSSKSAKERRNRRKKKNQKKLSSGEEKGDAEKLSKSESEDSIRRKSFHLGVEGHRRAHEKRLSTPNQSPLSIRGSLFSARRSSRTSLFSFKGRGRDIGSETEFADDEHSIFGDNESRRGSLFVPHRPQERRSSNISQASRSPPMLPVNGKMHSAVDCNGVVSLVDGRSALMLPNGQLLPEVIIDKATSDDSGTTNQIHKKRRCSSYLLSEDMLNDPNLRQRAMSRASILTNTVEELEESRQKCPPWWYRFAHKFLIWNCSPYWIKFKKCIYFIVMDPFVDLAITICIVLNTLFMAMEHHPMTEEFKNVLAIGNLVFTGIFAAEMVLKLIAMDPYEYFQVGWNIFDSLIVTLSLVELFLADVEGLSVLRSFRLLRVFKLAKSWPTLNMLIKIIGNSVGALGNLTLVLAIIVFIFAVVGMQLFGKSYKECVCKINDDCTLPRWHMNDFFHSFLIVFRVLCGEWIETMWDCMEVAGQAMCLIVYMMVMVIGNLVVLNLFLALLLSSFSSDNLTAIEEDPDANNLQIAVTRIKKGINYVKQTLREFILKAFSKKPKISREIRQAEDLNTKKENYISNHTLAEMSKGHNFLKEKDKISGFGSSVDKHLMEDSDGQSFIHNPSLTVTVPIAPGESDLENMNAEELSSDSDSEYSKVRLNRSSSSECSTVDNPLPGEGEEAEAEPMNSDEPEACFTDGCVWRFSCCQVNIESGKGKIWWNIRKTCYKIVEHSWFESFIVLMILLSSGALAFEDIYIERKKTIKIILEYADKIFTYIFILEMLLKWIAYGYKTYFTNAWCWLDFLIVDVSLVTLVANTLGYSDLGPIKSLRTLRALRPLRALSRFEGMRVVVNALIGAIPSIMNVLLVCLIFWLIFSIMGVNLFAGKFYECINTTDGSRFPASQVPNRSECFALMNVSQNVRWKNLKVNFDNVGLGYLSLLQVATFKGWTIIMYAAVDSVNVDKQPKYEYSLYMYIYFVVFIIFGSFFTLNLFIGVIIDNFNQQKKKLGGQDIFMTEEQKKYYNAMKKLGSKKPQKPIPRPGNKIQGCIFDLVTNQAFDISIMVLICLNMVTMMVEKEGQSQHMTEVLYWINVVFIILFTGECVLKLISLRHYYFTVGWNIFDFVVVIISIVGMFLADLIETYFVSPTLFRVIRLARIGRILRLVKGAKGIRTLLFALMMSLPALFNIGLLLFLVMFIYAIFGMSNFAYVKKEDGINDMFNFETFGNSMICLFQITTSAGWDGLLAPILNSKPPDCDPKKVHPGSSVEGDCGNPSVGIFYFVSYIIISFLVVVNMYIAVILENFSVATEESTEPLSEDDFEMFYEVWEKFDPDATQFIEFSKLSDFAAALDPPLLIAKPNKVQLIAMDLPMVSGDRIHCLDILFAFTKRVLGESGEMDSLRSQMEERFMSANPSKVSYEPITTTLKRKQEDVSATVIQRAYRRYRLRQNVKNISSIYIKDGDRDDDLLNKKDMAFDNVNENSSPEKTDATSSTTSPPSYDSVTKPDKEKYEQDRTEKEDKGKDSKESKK
Sequence of hNav1.3 (Q9NY46 whole entry, looked up): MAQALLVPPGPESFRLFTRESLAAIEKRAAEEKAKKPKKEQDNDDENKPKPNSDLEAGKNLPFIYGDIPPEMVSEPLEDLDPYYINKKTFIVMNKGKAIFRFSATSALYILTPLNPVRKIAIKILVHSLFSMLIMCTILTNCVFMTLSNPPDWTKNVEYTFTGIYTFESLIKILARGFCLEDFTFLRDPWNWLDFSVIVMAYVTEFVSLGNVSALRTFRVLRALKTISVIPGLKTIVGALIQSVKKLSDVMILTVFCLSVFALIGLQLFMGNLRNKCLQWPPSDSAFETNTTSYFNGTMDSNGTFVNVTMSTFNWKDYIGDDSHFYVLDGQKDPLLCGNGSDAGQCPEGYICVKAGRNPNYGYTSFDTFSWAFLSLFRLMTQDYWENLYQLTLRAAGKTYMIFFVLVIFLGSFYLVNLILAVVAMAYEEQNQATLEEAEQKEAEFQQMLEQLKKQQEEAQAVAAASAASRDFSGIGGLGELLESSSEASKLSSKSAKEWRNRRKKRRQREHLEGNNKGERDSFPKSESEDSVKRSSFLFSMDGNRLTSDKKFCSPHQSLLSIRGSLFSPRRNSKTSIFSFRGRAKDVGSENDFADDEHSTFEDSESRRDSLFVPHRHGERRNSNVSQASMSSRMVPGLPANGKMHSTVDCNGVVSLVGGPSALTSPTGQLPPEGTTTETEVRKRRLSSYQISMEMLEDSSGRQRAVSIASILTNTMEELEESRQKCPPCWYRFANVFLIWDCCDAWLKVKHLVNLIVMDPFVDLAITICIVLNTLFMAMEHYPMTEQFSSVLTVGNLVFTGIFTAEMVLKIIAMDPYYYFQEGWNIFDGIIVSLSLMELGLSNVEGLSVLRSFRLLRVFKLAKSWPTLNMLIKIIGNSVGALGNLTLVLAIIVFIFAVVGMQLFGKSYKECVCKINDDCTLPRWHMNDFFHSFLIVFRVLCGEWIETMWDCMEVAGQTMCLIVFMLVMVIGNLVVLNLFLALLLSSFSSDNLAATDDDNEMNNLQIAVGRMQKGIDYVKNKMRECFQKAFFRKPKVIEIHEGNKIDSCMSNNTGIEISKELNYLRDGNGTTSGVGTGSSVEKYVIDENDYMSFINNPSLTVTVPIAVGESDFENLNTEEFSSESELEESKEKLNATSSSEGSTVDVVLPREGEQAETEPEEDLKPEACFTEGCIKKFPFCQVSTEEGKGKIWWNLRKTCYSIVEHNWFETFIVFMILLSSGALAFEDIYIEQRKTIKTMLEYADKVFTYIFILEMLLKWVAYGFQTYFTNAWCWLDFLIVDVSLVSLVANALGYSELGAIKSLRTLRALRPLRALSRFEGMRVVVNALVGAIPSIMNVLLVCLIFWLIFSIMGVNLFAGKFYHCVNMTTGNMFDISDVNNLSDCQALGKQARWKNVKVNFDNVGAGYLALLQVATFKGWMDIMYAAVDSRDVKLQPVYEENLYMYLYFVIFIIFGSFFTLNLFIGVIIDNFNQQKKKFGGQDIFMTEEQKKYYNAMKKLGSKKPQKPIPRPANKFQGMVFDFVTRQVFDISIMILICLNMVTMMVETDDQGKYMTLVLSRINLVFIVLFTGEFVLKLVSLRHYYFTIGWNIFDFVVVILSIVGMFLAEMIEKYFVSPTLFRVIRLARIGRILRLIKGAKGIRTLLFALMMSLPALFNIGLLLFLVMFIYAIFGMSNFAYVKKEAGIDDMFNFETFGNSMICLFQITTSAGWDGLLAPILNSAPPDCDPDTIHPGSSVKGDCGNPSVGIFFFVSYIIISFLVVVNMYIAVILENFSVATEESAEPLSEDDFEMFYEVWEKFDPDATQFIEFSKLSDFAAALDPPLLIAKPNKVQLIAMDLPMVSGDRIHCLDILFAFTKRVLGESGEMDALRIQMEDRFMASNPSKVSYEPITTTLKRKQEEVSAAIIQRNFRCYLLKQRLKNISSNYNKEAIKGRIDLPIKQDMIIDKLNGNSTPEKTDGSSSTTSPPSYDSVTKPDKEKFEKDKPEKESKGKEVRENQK

CC[C@H](C)[C@@H]1NC(=O)[C@@H]2CSSC[C@@H]3NC(=O)[C@H](C(C)C)NC(=O)[C@H](CC(C)C)NC(=O)[C@H](CC(N)=O)NC(=O)[C@@H]4CCCN4C(=O)[C@H](CCCNC(=N)N)NC(=O)[C@H](CSSC[C@H](NC(=O)[C@@H](N)CCC(=O)O)C(=O)N[C@@H](CC(C)C)C(=O)NCC(=O)N[C@@H](Cc4ccccc4)C(=O)N[C@@H](CCSC)C(=O)N[C@@H](CCCNC(=N)N)C(=O)N[C@@H](CCCCN)C(=O)N2)NC(=O)[C@H](CSSC[C@@H](C(=O)N[C@@H](CCCCN)C(=O)N[C@@H](Cc2ccc(O)cc2)C(=O)N[C@H](C(=O)N[C@@H](Cc2ccccc2)C(N)=O)C(C)C)NC(=O)[C@H](Cc2c[nH]c4ccccc24)NC(=O)[C@H](CCCCN)NC(=O)[C@H](Cc2c[nH]cn2)NC(=O)[C@H]([C@@H](C)O)NC(=O)[C@H](CCCNC(=N)N)NC(=O)[C@H](CO)NC3=O)NC(=O)[C@H](CCCCN)NC(=O)[C@H](CC(=O)O)NC(=O)[C@H](CC(N)=O)NC(=O)[C@H](CC(=O)O)NC(=O)[C@@H]2CCCN2C1=O [SEQ ID NO: 18] (H-ECLGFMRKCIPDNDKCCRPNLVCSRTHKWCKYVF-NH2; disulfide 2-17, 9-23, 16-30)
IC50 (hNav1.7; [1]): 220 nM

CC[C@H](C)[C@@H]1NC(=O)[C@@H]2CSSC[C@@H]3NC(=O)[C@H](C(C)C)NC(=O)[C@H](CC(C)C)NC(=O)[C@H](CC(N)=O)NC(=O)[C@@H]4CCCN4C(=O)[C@H](CCCNC(=N)N)NC(=O)[C@H](CSSC[C@H](NC(=O)[C@@H](N)CC(=O)O)C(=O)N[C@@H](CCC(=O)O)C(=O)NCC(=O)N[C@@H](Cc4ccccc4)C(=O)N[C@@H](CCSC)C(=O)N[C@@H](CCCNC(=N)N)C(=O)N[C@@H](CCCCN)C(=O)N2)NC(=O)[C@H](CSSC[C@@H](C(=O)N[C@@H](CCCCN)C(=O)N[C@@H](Cc2ccc(O)cc2)C(=O)N[C@H](C(=O)N[C@@H](Cc2ccccc2)C(N)=O)C(C)C)NC(=O)[C@H](Cc2c[nH]c4ccccc24)NC(=O)[C@H](CCCCN)NC(=O)[C@H](Cc2c[nH]cn2)NC(=O)[C@H]([C@@H](C)O)NC(=O)[C@H](CCCNC(=N)N)NC(=O)[C@H](CO)NC3=O)NC(=O)[C@H](CCCCN)NC(=O)[C@H](CC(=O)O)NC(=O)[C@H](CC(N)=O)NC(=O)[C@H](CC(=O)O)NC(=O)[C@@H]2CCCN2C1=O [SEQ ID NO: 19] (H-DCEGFMRKCIPDNDKCCRPNLVCSRTHKWCKYVF-NH2; disulfide 2-17, 9-23, 16-30)
IC50 (hNav1.7; [1]): 670 nM

CC[C@H](C)[C@@H]1NC(=O)[C@@H]2CSSC[C@@H]3NC(=O)[C@H](C(C)C)NC(=O)[C@H](CC(C)C)NC(=O)[C@H](CC(N)=O)NC(=O)[C@@H]4CCCN4C(=O)[C@H](CCCNC(=N)N)NC(=O)[C@H](CSSC[C@H](NC(=O)[C@H](C)N)C(=O)N[C@@H](CC(C)C)C(=O)NCC(=O)N[C@@H](Cc4ccccc4)C(=O)N[C@@H](CCSC)C(=O)N[C@@H](CCCNC(=N)N)C(=O)N[C@@H](CCCCN)C(=O)N2)NC(=O)[C@H](CSSC[C@@H](C(=O)N[C@@H](CCCCN)C(=O)N[C@@H](Cc2ccc(O)cc2)C(=O)N[C@H](C(=O)N[C@@H](Cc2ccccc2)C(N)=O)C(C)C)NC(=O)[C@H](Cc2c[nH]c4ccccc24)NC(=O)[C@H](CCCCN)NC(=O)[C@H](Cc2c[nH]cn2)NC(=O)[C@H]([C@@H](C)O)NC(=O)[C@H](CCCNC(=N)N)NC(=O)[C@H](CO)NC3=O)NC(=O)[C@H](CCCCN)NC(=O)[C@H](CC(=O)O)NC(=O)[C@H](CC(N)=O)NC(=O)[C@H](CC(=O)O)NC(=O)[C@@H]2CCCN2C1=O [SEQ ID NO: 20] (H-ACLGFMRKCIPDNDKCCRPNLVCSRTHKWCKYVF-NH2; disulfide 2-17, 9-23, 16-30)
IC50 (hNav1.7; [1]): 100 nM

CC[C@H](C)[C@@H]1NC(=O)[C@@H]2CSSC[C@@H]3NC(=O)[C@H](C(C)C)NC(=O)[C@H](CC(C)C)NC(=O)[C@H](CC(N)=O)NC(=O)[C@@H]4CCCN4C(=O)[C@H](CCCNC(=N)N)NC(=O)[C@H](CSSC[C@H](NC(=O)[C@@H](N)CC(=O)O)C(=O)N[C@@H](CC(C)C)C(=O)N[C@@H](CCC(=O)O)C(=O)N[C@@H](Cc4ccccc4)C(=O)N[C@@H](CCSC)C(=O)N[C@@H](CCCNC(=N)N)C(=O)N[C@@H](CCCCN)C(=O)N2)NC(=O)[C@H](CSSC[C@@H](C(=O)N[C@@H](CCCCN)C(=O)N[C@@H](Cc2ccc(O)cc2)C(=O)N[C@H](C(=O)N[C@@H](Cc2ccccc2)C(N)=O)C(C)C)NC(=O)[C@H](Cc2c[nH]c4ccccc24)NC(=O)[C@H](CCCCN)NC(=O)[C@H](Cc2c[nH]cn2)NC(=O)[C@H]([C@@H](C)O)NC(=O)[C@H](CCCNC(=N)N)NC(=O)[C@H](CO)NC3=O)NC(=O)[C@H](CCCCN)NC(=O)[C@H](CC(=O)O)NC(=O)[C@H](CC(N)=O)NC(=O)[C@H](CC(=O)O)NC(=O)[C@@H]2CCCN2C1=O [SEQ ID NO: 24] (H-DCLEFMRKCIPDNDKCCRPNLVCSRTHKWCKYVF-NH2; disulfide 2-17, 9-23, 16-30)
IC50 (hNav1.7; [1]): 1740 nM

CC[C@H](C)[C@@H]1NC(=O)[C@@H]2CSSC[C@@H]3NC(=O)[C@H](C(C)C)NC(=O)[C@H](CC(C)C)NC(=O)[C@H](CC(N)=O)NC(=O)[C@@H]4CCCN4C(=O)[C@H](CCCNC(=N)N)NC(=O)[C@H](CSSC[C@H](NC(=O)[C@@H](N)CC(=O)O)C(=O)N[C@@H](CC(C)C)C(=O)NCC(=O)N[C@@H](Cc4ccccc4)C(=O)N[C@@H](CCSC)C(=O)N[C@@H](CCCNC(=N)N)C(=O)N[C@@H](CCCCN)C(=O)N2)NC(=O)[C@H](CSSC[C@@H](C(=O)N[C@@H](CCCCN)C(=O)N[C@@H](Cc2ccc(O)cc2)C(=O)N[C@@H](CCC(=O)O)C(=O)N[C@@H](Cc2ccccc2)C(N)=O)NC(=O)[C@H](Cc2c[nH]c4ccccc24)NC(=O)[C@H](CCCCN)NC(=O)[C@H](Cc2c[nH]cn2)NC(=O)[C@H]([C@@H](C)O)NC(=O)[C@H](CCCNC(=N)N)NC(=O)[C@H](CO)NC3=O)NC(=O)[C@H](CCCCN)NC(=O)[C@H](CC(=O)O)NC(=O)[C@H](CC(N)=O)NC(=O)[C@H](CC(=O)O)NC(=O)[C@@H]2CCCN2C1=O [SEQ ID NO: 33, [Glu33]GpTx-1] (H-DCLGFMRKCIPDNDKCCRPNLVCSRTHKWCKYEF-NH2; disulfide 2-17, 9-23, 16-30)
IC50 (hNav1.7): 560 nM

CC[C@H](C)[C@@H]1NC(=O)[C@@H]2CSSC[C@@H]3NC(=O)[C@H](C(C)C)NC(=O)[C@H](CC(C)C)NC(=O)[C@H](CC(N)=O)NC(=O)[C@@H]4CCCN4C(=O)[C@H](CCCNC(=N)N)NC(=O)[C@H](CSSC[C@H](NC(=O)[C@@H](N)CCCCN)C(=O)N[C@@H](CC(C)C)C(=O)NCC(=O)N[C@@H](Cc4ccccc4)C(=O)N[C@@H](CCSC)C(=O)N[C@@H](CCCNC(=N)N)C(=O)N[C@@H](CCCCN)C(=O)N2)NC(=O)[C@H](CSSC[C@@H](C(=O)N[C@@H](CCCCN)C(=O)N[C@@H](Cc2ccc(O)cc2)C(=O)N[C@H](C(=O)N[C@@H](Cc2ccccc2)C(N)=O)C(C)C)NC(=O)[C@H](Cc2c[nH]c4ccccc24)NC(=O)[C@H](CCCCN)NC(=O)[C@H](Cc2c[nH]cn2)NC(=O)[C@H]([C@@H](C)O)NC(=O)[C@H](CCCNC(=N)N)NC(=O)[C@H](CO)NC3=O)NC(=O)[C@H](CCCCN)NC(=O)[C@H](CC(=O)O)NC(=O)[C@H](CC(N)=O)NC(=O)[C@H](CC(=O)O)NC(=O)[C@@H]2CCCN2C1=O [SEQ ID NO: 37] (H-KCLGFMRKCIPDNDKCCRPNLVCSRTHKWCKYVF-NH2; disulfide 2-17, 9-23, 16-30)
IC50 (hNav1.7; [1]): 150 nM

CC[C@H](C)[C@@H]1NC(=O)[C@@H]2CSSC[C@@H]3NC(=O)[C@H](C(C)C)NC(=O)[C@H](CC(C)C)NC(=O)[C@H](CC(N)=O)NC(=O)[C@@H]4CCCN4C(=O)[C@H](CCCNC(=N)N)NC(=O)[C@H](CSSC[C@H](NC(=O)[C@@H](N)CC(=O)O)C(=O)N[C@@H](CC(C)C)C(=O)NCC(=O)N[C@@H](C)C(=O)N[C@@H](Cc4ccccc4)C(=O)N[C@@H](CCCNC(=N)N)C(=O)N[C@@H](CCCCN)C(=O)N2)NC(=O)[C@H](CSSC[C@@H](C(=O)N[C@@H](CCCCN)C(=O)N[C@@H](Cc2ccc(O)cc2)C(=O)N[C@H](C(=O)N[C@@H](Cc2ccccc2)C(N)=O)C(C)C)NC(=O)[C@H](Cc2c[nH]c4ccccc24)NC(=O)[C@H](CCCNC(=N)N)NC(=O)[C@H](Cc2cnc[nH]2)NC(=O)[C@H]([C@@H](C)O)NC(=O)[C@H](CCCNC(=N)N)NC(=O)[C@H](CO)NC3=O)NC(=O)[C@H](CCCCN)NC(=O)[C@H](CC(=O)O)NC(=O)[C@H](CC(N)=O)NC(=O)[C@H](CC(=O)O)NC(=O)[C@@H]2CCCN2C1=O [compound 809] (H-DCLGAFRKCIPDNDKCCRPNLVCSRTHRWCKYVF-NH2; disulfide 2-17, 9-23, 16-30)
IC50 (hNav1.3): 300 nM

CC[C@H](C)[C@@H]1NC(=O)[C@@H]2CSSC[C@@H]3NC(=O)[C@H](C(C)C)NC(=O)[C@H](CC(C)C)NC(=O)[C@H](CC(N)=O)NC(=O)[C@@H]4CCCN4C(=O)[C@H](CCCNC(=N)N)NC(=O)[C@H](CSSC[C@H](NC(=O)[C@@H](N)CC(=O)O)C(=O)N[C@@H](CC(C)C)C(=O)NCC(=O)N[C@@H](C)C(=O)N[C@@H](CC(C)C)C(=O)N[C@@H](CCCNC(=N)N)C(=O)N[C@@H](CCCCN)C(=O)N2)NC(=O)[C@H](CSSC[C@@H](C(=O)N[C@@H](CCCCN)C(=O)N[C@@H](Cc2ccc(O)cc2)C(=O)N[C@H](C(=O)N[C@@H](Cc2ccccc2)C(N)=O)C(C)C)NC(=O)[C@H](Cc2c[nH]c4ccccc24)NC(=O)[C@H](CCCNC(=N)N)NC(=O)[C@H](Cc2cnc[nH]2)NC(=O)[C@H]([C@@H](C)O)NC(=O)[C@H](CCCNC(=N)N)NC(=O)[C@H](CO)NC3=O)NC(=O)[C@H](CCCCN)NC(=O)[C@H](CC(=O)O)NC(=O)[C@H](CC(N)=O)NC(=O)[C@H](CC(=O)O)NC(=O)[C@@H]2CCCN2C1=O [compound 810] (H-DCLGALRKCIPDNDKCCRPNLVCSRTHRWCKYVF-NH2; disulfide 2-17, 9-23, 16-30)
IC50 (hNav1.3): 200 nM
